Source: US9346815B2, “5-chloro-2-difluoromethoxyphenyl pyrazolopyrimidine compounds, compositions and methods of use thereof” (Genentech, Inc., priority 2014, dated 2016)

How the values were obtained:
[1] = target: isolated recombinant JAK2 kinase domain (Homo sapiens (Human), UniProt O60674); assay: JAK2 enzyme assay (Caliper LabChip, peptide phosphorylation); type: biochemical; details: 25 μM ATP
[2] = target: isolated recombinant JAK1 kinase domain (Homo sapiens (Human), UniProt P23458); assay: JAK1 enzyme assay (Caliper LabChip, peptide phosphorylation); type: biochemical; details: isolated recombinant JAK1 kinase domain, 25 μM ATP
Sequence of isolated recombinant JAK1 kinase domain (P23458 875-1153): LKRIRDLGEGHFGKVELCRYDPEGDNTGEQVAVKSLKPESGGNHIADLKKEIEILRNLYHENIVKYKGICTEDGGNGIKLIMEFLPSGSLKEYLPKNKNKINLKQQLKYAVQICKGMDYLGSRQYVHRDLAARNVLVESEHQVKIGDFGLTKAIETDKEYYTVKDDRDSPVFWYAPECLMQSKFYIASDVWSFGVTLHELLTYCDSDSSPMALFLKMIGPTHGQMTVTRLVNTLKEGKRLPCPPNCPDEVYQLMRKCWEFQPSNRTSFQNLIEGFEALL

Sequence of isolated recombinant JAK2 kinase domain (O60674 849-1124): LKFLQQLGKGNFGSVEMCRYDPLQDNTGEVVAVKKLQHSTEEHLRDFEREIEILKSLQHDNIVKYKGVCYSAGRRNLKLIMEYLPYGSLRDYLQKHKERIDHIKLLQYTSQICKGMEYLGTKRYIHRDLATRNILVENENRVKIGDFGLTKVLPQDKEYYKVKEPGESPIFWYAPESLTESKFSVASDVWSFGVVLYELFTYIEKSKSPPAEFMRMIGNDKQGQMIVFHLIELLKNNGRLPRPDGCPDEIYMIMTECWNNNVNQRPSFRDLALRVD

Structure (SMILES)	Ki [1] [nM]	Ki [2] [nM]
Nc1nn2cccnc2c1C(=O)Nc1cn(CC(=O)N2CCN(CCO)CC2)nc1-c1cc(Cl)ccc1OC(F)F [Example 244, 2-amino-N-[3-[5-chloro-2-(difluoromethoxy)phenyl]-1-[2-[4-(2-hydroxyethyl)piperazin-1-yl]-2-oxo-ethyl]pyrazol-4-yl]pyrazolo[1,5-a]pyrimidine-3-carboxamide]	0.24	0.49
O=C(Nc1cn(CC(=O)N2CCC(F)(F)C2)nc1-c1cc(Cl)ccc1OC(F)F)c1cnn2cccnc12 [Example 287, N-[3-[5-chloro-2-(difluoromethoxy)phenyl]-1-[2-(3,3-difluoropyrrolidin-1-yl)-2-oxo-ethyl]pyrazol-4-yl]pyrazolo[1,5-a]pyrimidine-3-carboxamide]	0.65	0.35
O=C(Nc1cn(CC(=O)N2CCCN(CCO)CC2)nc1-c1cc(Cl)ccc1OC(F)F)c1cnn2cccnc12 [Example 240, N-[3-[5-chloro-2-(difluoromethoxy)phenyl]-1-[2-[4-(2-hydroxyethyl)-1,4-diazepan-1-yl]-2-oxo-ethyl]pyrazol-4-yl]pyrazolo[1,5-a]pyrimidine-3-carboxamide]	1.68	1
CC1(O)CCN(C(=O)Cn2cc(NC(=O)c3cnn4cccnc34)c(-c3cc(Cl)ccc3OC(F)F)n2)C1 (stereo not drawn) [Example 269, N-[3-[5-chloro-2-(difluoromethoxy)phenyl]-1-[2-(3-hydroxy-3-methyl-pyrrolidin-1-yl)-2-oxo-ethyl]pyrazol-4-yl]pyrazolo[1,5-a]pyrimidine-3-carboxamide]	0.83	0.33
O=C(Nc1cn(CC(=O)N2CCC(O)(CO)CC2)nc1-c1cc(Cl)ccc1OC(F)F)c1cnn2cccnc12 [Example 272, N-[3-[5-chloro-2-(difluoromethoxy)phenyl]-1-[2-[4-hydroxy-4-(hydroxymethyl)-1-piperidyl]-2-oxo-ethyl]pyrazol-4-yl]pyrazolo[1,5-a]pyrimidine-3-carboxamide]	0.78	0.33
Nc1nn2cccnc2c1C(=O)Nc1cn([C@@H]2CCNC2)nc1-c1cc(Cl)ccc1OC(F)F [Example 185, 2-amino-N-[3-[5-chloro-2-(difluoromethoxy)phenyl]-1-[(3R)-pyrrolidin-3-yl]pyrazol-4-yl]pyrazolo[1,5-a]pyrimidine-3-carboxamide]	0.31	0.59
Nc1nn2cccnc2c1C(=O)Nc1cn(CC(=O)N2CCC(F)(F)C2)nc1-c1cc(Cl)ccc1OC(F)F [Example 282, 2-amino-N-[3-[5-chloro-2-(difluoromethoxy)phenyl]-1-[2-(3,3-difluoropyrrolidin-1-yl)-2-oxo-ethyl]pyrazol-4-yl]pyrazolo[1,5-a]pyrimidine-3-carboxamide]	0.12	0.17
O=C(Nc1cn(CC(=O)N2CC3(CCNCC3)C2)nc1-c1cc(Cl)ccc1OC(F)F)c1cnn2cccnc12 [Example 217, N-[3-[5-chloro-2-(difluoromethoxy)phenyl]-1-[2-(2,7-diazaspiro[3.5]nonan-2-yl)-2-oxo-ethyl]pyrazol-4-yl]pyrazolo[1,5-a]pyrimidine-3-carboxamide]	1.37	1.07

The remaining lines, values ahead:

Ki [1] [nM]	Ki [2] [nM]	Structure (SMILES)
0.22	0.39	Nc1nn2cccnc2c1C(=O)Nc1cn(CC(=O)N2CCC(O)(Cc3ccccc3)CC2)nc1-c1cc(Cl)ccc1OC(F)F [Example 279, 2-amino-N-[1-[2-(4-benzyl-4-hydroxy-1-piperidyl)-2-oxo-ethyl]-3-[5-chloro-2-(difluoromethoxy)phenyl]pyrazol-4-yl]pyrazolo[1,5-a]pyrimidine-3-carboxamide]
8.33	6.51	CN(C1CCN(C(=O)Cn2cc(NC(=O)c3cnn4cccnc34)c(-c3cc(Cl)ccc3OC(F)F)n2)CC1)C(Cc1ccccc1)C(F)(F)F (stereo not drawn) [Example 133, N-[1-[2-[4-[(1-benzyl-2,2,2-trifluoro-ethyl)-methyl-amino]-1-piperidyl]-2-oxo-ethyl]-3-[5-chloro-2-(difluoromethoxy)phenyl]pyrazol-4-yl]pyrazolo[1,5-a]pyrimidine-3-carboxamide]
1.69	0.7	CN1CCC2CN(C(=O)Cn3cc(NC(=O)c4cnn5cccnc45)c(-c4cc(Cl)ccc4OC(F)F)n3)CC2C1 (stereo not drawn) [Example 30, N-[3-[5-chloro-2-(difluoromethoxy)phenyl]-1-[2-(5-methyl-3,3a,4,6,7,7a-hexahydro-1H-pyrrolo[3,4-c]pyridin-2-yl)-2-oxo-ethyl]pyrazol-4-yl]pyrazolo[1,5-a]pyrimidine-3-carboxamide]
3.27	5.04	CCOC(=O)CN(CCn1cc(NC(=O)c2cnn3cccnc23)c(-c2cc(Cl)ccc2OC(F)F)n1)Cc1cccnc1 [Example 362, ethyl 2-[(2-[3-[5-chloro-2-(difluoromethoxy)phenyl]-4-[pyrazolo[1,5-a]pyrimidine-3-amido]-1H-pyrazol-1-yl]ethyl)(pyridin-3-ylmethyl)amino]acetate]
0.29	0.55	N#CC1(c2ccccc2)CCN(C(=O)Cn2cc(NC(=O)c3c(N)nn4cccnc34)c(-c3cc(Cl)ccc3OC(F)F)n2)CC1 [Example 283, 2-amino-N-[3-[5-chloro-2-(difluoromethoxy)phenyl]-1-[2-(4-cyano-4-phenyl-1-piperidyl)-2-oxo-ethyl]pyrazol-4-yl]pyrazolo[1,5-a]pyrimidine-3-carboxamide]
1.18	0.54	O=C(Nc1cn(CC(=O)N2CCN(CCOCCO)CC2)nc1-c1cc(Cl)ccc1OC(F)F)c1cnn2cccnc12 [Example 231, N-[3-[5-chloro-2-(difluoromethoxy)phenyl]-1-[2-[4-[2-(2-hydroxyethoxy)ethyl]piperazin-1-yl]-2-oxo-ethyl]pyrazol-4-yl]pyrazolo[1,5-a]pyrimidine-3-carboxamide]
0.74	0.41	O=C(Nc1cn(CC(=O)N2CCN(c3ccccc3)CC2)nc1-c1cc(Cl)ccc1OC(F)F)c1cnn2cccnc12 [Example 236, N-[3-[5-chloro-2-(difluoromethoxy)phenyl]-1-[2-oxo-2-(4-phenylpiperazin-1-yl)ethyl]pyrazol-4-yl]pyrazolo[1,5-a]pyrimidine-3-carboxamide]
0.23	0.49	Nc1nn2cccnc2c1C(=O)Nc1cn(CC(=O)N2CCOC(CO)C2)nc1-c1cc(Cl)ccc1OC(F)F (stereo not drawn) [Example 273, 2-amino-N-[3-[5-chloro-2-(difluoromethoxy)phenyl]-1-[2-[2-(hydroxy-methyl)morpholin-4-yl]-2-oxo-ethyl]pyrazol-4-yl]pyrazolo[1,5-a]pyrimidine-3-carboxamide]
4.66	1.06	CN(C)C[C@H]1CCCN(C(=O)Cn2cc(NC(=O)c3cnn4cccnc34)c(-c3cc(Cl)ccc3OC(F)F)n2)C1 [Example 71, N-[3-[5-chloro-2-(difluoromethoxy)phenyl]-1-[2-[(3R)-3-[(dimethylamino)methyl]-1-piperidyl]-2-oxo-ethyl]pyrazol-4-yl]pyrazolo[1,5-a]pyrimidine-3-carboxamide]
9.03	7.05	CN(CC1(C#N)CCCCC1)C1CCN(C(=O)c2ccc(-n3cc(NC(=O)c4cnn5cccnc45)c(-c4cc(Cl)ccc4OC(F)F)n3)cc2)CC1 [Example 187, N-[3-[5-chloro-2-(difluoromethoxy)phenyl]-1-[4-[4-[(1-cyanocyclohexyl)methyl-methyl-amino]piperidine-1-carbonyl]phenyl]pyrazol-4-yl]pyrazolo[1,5-a]pyrimidine-3-carboxamide]
